Source: US4829082A, “Pharmaceutical compositions for the treatment of skin diseases” (Nisshin Chemicals Co., Ltd., priority 1986, dated 1989)
Several values for one entry are separate records, joined by “and”; a condition that tells them apart may be missing. Equal entries are not always repeated.

Legend:
Acute toxicity in mice = details: mouse, in vivo
rats = assay: Percutaneous subacute toxicity in rats; format: in vivo; details: lotions containing 0.5% and 1.5% of TOC ester
Protocol: Percutaneous subacute toxicity in rats
Tests were conducted for 30 days using lotions containing 0.5% and 1.5% of TOC ester, respectively.

guinea pigs = assay: Appearance of skin allergy in guinea pigs (induction test); format: in vivo; details: challenge two weeks after sensitization, 0.1 ml acetone solution containing 0.05%, 0.10% and 0.20% of TOC ester
Protocol: Appearance of skin allergy in guinea pigs
Induction tests were conducted, wherein guinea pigs were sensitized with 0.1 ml of 30% chloroform solution, and two weeks after sensitization, the pigs were treated on the skin with 0.1 ml of acetone solution containing 0.05%, 0.10% and 0.20% of TOC ester, respectively.

eyes of rabbits = assay: Irritation on eyes of rabbits; format: in vivo; details: physiological salt suspensions containing 0.05% and 0.5% of TOC ester
Text: Irritation on eyes of rabbits

human being = assay: Chafe on human being (Patch test); format: in vivo; details: cream containing 0.1% and 0.3% of TOC ester
Text: Chafe on human being (Patch test)

experimental bedsore = assay: Experimental bedsore of rabbits; format: in vivo, Japanese white male rabbits
Text: (Experimental bedsore of rabbits)
Japanese white male rabbits weighing 2.5-4.4 kg were used.
An experimental bedsore was formed on the rabbits in accordance with the methods of Kosiak (Arch. Phys. Med. Rehabil., Vbl. 40, 62-69, 1959) and Fukawa et al. (Applied Pharmacology, Vol. 23, No. 6, 999-1011, 1982). The rabbits were anethetized with Nembutal® and fixed so that the shaved right trochanteric region of the rabbits was held horizontally, a pressure of 500-600 mmHg/cm^2 was applied to 2 cm^2 area of the skin in the shaved region, and the rabbits were held for 5-10 hours to allow development of bedsore. Two days after application of the pressure, occurrence of bedsore was confirmed.
The affective rabbits were distributed to two groups. One group (5 rabbits) was coated on the surface of bedsore region with a lotion containing 0.5% by weight of TOC ester by a brush once a day (said lotion being prepared from 900 parts by weight of water, 95 parts by weight of ethanol and 5 parts by weight of TOC ester). The other control group (4 rabbits) was coated once a day with only the base of the lotion (mixture of 900 parts of weight of water and 95 parts by weight of ethanol). One week after the treatment, a sheet of Japanese paper was applied to the bedsore area occurred in each rabbit. The injured area of said bedsore was transferred to the paper according to the etching method, and the transferred areas were measured by means of a planimeter.

bedsore = assay: Bedsore, human patient (Test Example 2); format: in vivo; details: oil ointment containing 0.5% by weight of TOC ester on gauze
Text: An oil ointment containing 0.5% by weight of TOC ester spread on a gauze was applied to the bedsore areas occurred in the ischium and whirlbone of a person lying in bed for a long time suffering from injury of myelon, said gauze being embedded in a depressed region of deep ulcer of bedsore after crumpling the gauze into a ball, and being applied as it was to a superficial region of the ulcer. The gauze was exchanged once or twice a day.

dermal ulcer = assay: Dermal ulcer occurred in a rheumatic patient (Test Example 3); format: in vivo, human; details: same ointment as Test Example 2 (0.5%)
Text: (Dermal ulcer occurred in a rheumatic patient)
The same ointment as used in Test Example 2 was applied directly or applied using a gauze over which said ointment had been spread, to a dermal ulcer occurred on a sacral region, sciatic tuber region, elbow head, inner and outer ankle regions and heel region of a person suffering from arthrorheumatism under hospital treatment.

burn ulcer = assay: Burn ulcer, human patient (Test Example 4); format: in vivo; details: same ointment as Test Example 2 (0.5%), after one week
frostbite = assay: Frostbite, human patient (Test Example 5); format: in vivo; details: same ointment as Test Example 2 (0.5%), about one week
[1] = system: ulcer produced after zoster; assay: Zoster, human patient (Test Example 6); format: in vivo
Text: To an ulcer produced after zoster had occurred on the neck through the shoulder of a person was applied a gauze over which the same ointment as used in Test Example 2 had been spread.

skin pruritus = assay: Skin pruritus, human patient (Test Example 7); format: in vivo; details: same ointment as Test Example 2 (0.5%)
skin keratosis = assay: Skin keratosis, human patient (Test Example 8); format: in vivo; details: same ointment as Test Example 2 (0.5%), three days after treatment
callosity = assay: Callosity, human patient (Test Example 9); format: in vivo; details: lotion containing 0.5% by weight of TOC ester, about two weeks
eczema craquele = assay: Eczema craquele (cracking and chaps), human patient (Test Example 10); format: in vivo; details: hydrophilic ointment containing 0.3% by weight of TOC ester
Text: [Eczema craquele (cracking and chaps)]

housewife eczema = assay: Housewife eczema, human patient (Test Example 11); format: in vivo; details: same hydrophilic ointment as Test Example 10 (0.3%), in a week
[2] = General statement on toxicity, side effects and healing effect

Structure (SMILES): CC(C=CC1=C(C)CCCC1(C)C)=CC=CC(C)=CC(=O)Oc1c(C)c(C)c2c(c1C)CCC(C)(CCCC(C)CCCC(C)CCCC(C)C)O2 (stereo not drawn) [TOC ester, tocopheryl retinoate]
- LD50 (Acute toxicity in mice; im): > 2500 mg/kg
- LD50 (Acute toxicity in mice; ip): > 10000 mg/kg
- LD50 (Acute toxicity in mice; po): > 10000 mg/kg
- LD50 (Acute toxicity in mice; sc): > 2500 mg/kg
- change in general symptoms, dermal symptoms and body weight (rats; 30 days): no change in general symptoms, dermal symptoms and body weight
- change in blood and physiological examinations, anatomical observation, wet weight of organs, and pathological histological examination (rats; after 30 days): no change was observed at all
- contact skin allergy (guinea pigs): No contact skin allergy was observed
- irritation on eyes (eyes of rabbits): no change was observed
- rubor or expansion (patch test) (human being): no rubor or expansion was observed at all
- Injured area difference, Average ± standard deviation (experimental bedsore; lotion containing 0.5% TOC ester group, 5 rabbits, one week, control 0.907 ± 0.292): 1.82 ± 0.213 cm2
- Injured area after one week (experimental bedsore; lotion containing 0.5% TOC ester once a day, individual rabbits): 1.30 cm2 and 0.98 cm2 and 0.70 cm2 and 0.09 cm2 and 0.23 cm2
- Injured area at the initiation of treatment (experimental bedsore; lotion containing 0.5% TOC ester, individual rabbits, before treatment): 2.68 cm2 and 3.01 cm2 and 1.95 cm2 and 2.20 cm2 and 2.56 cm2
- Injured area, Difference (experimental bedsore; lotion containing 0.5% TOC ester, individual rabbits, initiation minus after one week): 1.38 cm2 and 2.03 cm2 and 1.25 cm2 and 2.11 cm2 and 2.33 cm2
- reduction in the injured area of bedsore (experimental bedsore; lotion containing 0.5% by weight of TOC ester, once a day, one week, 5 rabbits): marked reduction in the injured area of bedsore
- bottom region of deep ulcer, buildup of flesh owing to granulation (bedsore; about one month): marked buildup of flesh owing to granulation at the bottom region of deep ulcer
- improvement in cuticularization along the circumference of ulcer (bedsore; about one month): a remarkable improvement in cuticularization
- width of cuticularization along the circumference of ulcer (bedsore; about one month): about 5 mm
- superficial region of ulcer, epidermization (bedsore; after one week): epidermization was observed on the superficial region of ulcer
- superficial region of ulcer, disappearance of sore and closure (bedsore; two weeks thereafter): sore disappeared from the superficial region of ulcer, and the epidermis was formed to close the sore region
- adverse side effects (dermal ulcer; during treatment period): No adverse side effects was observed
- proliferation of the granulation and epidermization (dermal ulcer; large ulcers, about three months): marked improvements in proliferation of the granulation and in epidermization
- proliferation of the granulation and epidermization (dermal ulcer; small ulcers, about two weeks): marked improvements in proliferation of the granulation and in epidermization
- healing of burn ulcer (burn ulcer): a remarkable improvement in healing of the ulcer
- healing of frostbite (frostbite): an improvement in healing of frostbite
- healing of the ulcer after zoster ([1]; same ointment as Test Example 2 (0.5%) on gauze, about one week): a marked improvement in healing of the ulcer
- recurrence ([1]; same ointment as Test Example 2 (0.5%), six months after the healing): no recurrence was observed
- itching sensation (skin pruritus; one day after treatment): itching sensation ceased
- healing of skin pruritus (skin pruritus; three days after the treatment): the skin pruritus healed perfectly
- healing of skin keratosis (skin keratosis): a marked improvement in healing of the disease
- improvement of callosity (callosity): an improvement such as softening of the callosity
- adverse side-effects (eczema craquele; during the period of treatment): no adverse side-effects were observed
- healing of eczema craquele (eczema craquele; one month): a marked improvement in healing of the disease
- healing of eczema craquele (eczema craquele; two months): the disease perfectly healed
- healing of housewife eczema (housewife eczema): a marked improvement in healing of the disease
- side effects [2]: almost no side effects
- toxicity [2]: extremely low in toxicity
